Experimental data reported in patent US20100035941A1, “METHODS FOR INCREASING BLOOD FLOW AND/OR PROMOTING TISSUE REGENERATION” (priority 2006, published 2010).
Where “and” joins values, the source holds several entries; their conditions need not be identical. Identical values can stand only once. Like-named read-outs stand apart in the source and are kept apart here.

Legend:
[1] = system: granulocyte macrophage (CFU-GM), erythroid (BFU-E), and multipotential (CFU-GEMM) progenitor cells; details: mice; for Absolute Number Progenitors Per ML Blood, Methylcellulose Culture, BFU-E / Absolute Number Progenitors Per ML Blood, Methylcellulose Culture, CFU-GEMM / Absolute Number Progenitors Per ML Blood, Methylcellulose Culture, CFU-GM: 1 hour post administration; for Absolute Progenitors Per ML Blood, Methylcellulose Culture, BFU-E / Absolute Progenitors Per ML Blood, Methylcellulose Culture, CFU-GEMM / Absolute Progenitors Per ML Blood, Methylcellulose Culture, CFU-GM: single s.c. injection of 5 mg/Kg
Procedure: Progenitors were stimulated to form colonies in vitro with the combination of 1U/ml rhu Epo, 50 ng/ml rhu SLF, 5% Vol/Vol pokeweed mitogen mouse spleen cell conditioned medium (PWMSCM), and 0.1 mM hemin. Plates were scored 7 days after incubation.

[2] = system: CD34 positive progenitor cells; details: human volunteers; single s.c. 80 μg/kg
Procedure: (§1) Five healthy human volunteers having initial white blood cell counts of 4,500-7,500 cells/mm^3 were used in the study. […] Blood samples were obtained via catheter prior to the dose, and at various times up to 24 hours after dosing.
(§2) The blood samples were evaluated for total white blood cells, CD34 positive progenitor cells (via FACS analysis) as a percentage of total white blood cells, as well as the absolute numbers per mL and cycling status of granulocyte macrophage (CFU-GM), erythroid (BFU-E), and multipotential (CFU-GEMM) progenitor cells.

[3] = system: white blood cells; details: single s.c. 80 μg/kg
Procedure: as §1, §2

[4] = system: CFU-GM progenitor cells; details: donors' mean, s.c. 80 μg/kg
Procedure: All progenitor cell results are based on the scoring of 3 culture plates per assay per point.
(§3) For the progenitor cell numbers and cycling status, the numbers of CFU-GM, BFU-E and CFU-GEMM in methylcellulose cultures by stimulation of the cells with 1 Unit (U)/ml recombinant human (rhu) erythropoietin, 100 U/ml rhu granulocyte-macrophage colony stimulating factor (GM-CSF), 100 U/ml rhu interleukin-3 (IL-3) and 50 ng/ml rhu steel factor (SLF=stem cell factor (SCF)). The CFU-GM were also evaluated in agar cultures stimulated with 100 U/ml rhu GM-CSF and 50 ng/ml rhu SLF. For both types of assays, colonies were scored after 14 day incubation in a humidified atmosphere with 5% CO2 and lowered (5%) O2 tension. Cell cycling status of progenitors was measured using a high specific activity tritiated thymidine kill technique as previously described (Broxmeyer, H. E., et al., Exp. Hematol. (1989) 17:455-459).

[5] = system: progenitors in DNA synthesis (S) phase of the cell cycle; details: for BFU-E Cycling Status of Progenitors / CFU-GEMM Cycling Status of Progenitors / CFU-GM Cycling Status of Progenitors: % progenitors in S phase; for BFU-E Cycling Status of Progenitors / CFU-GEMM Cycling Status of Progenitors / CFU-GM Cycling Status of Progenitors / AGAR Culture CFU-GM Cycling Status of Progenitors: s.c. 80 μg/kg
Procedure: as §3

[6] = system: ischemic hind limb; experiment: Tissue regeneration in diabetic animal ischemic model: limb blood flow restoration, LASER Doppler; format: in vivo, male nude Hfh11 mice; details: diabetic mice
Procedure: Three to four weeks after injection of STZ the left hind limb was made ischemic by ligation of the iliac artery and removal of a 0.5-1 cm segment distal to the ligation.
One group of additional mice (n=11) was injected intramuscularly into the ischemic hindlimb with human non-diabetic-derived unmobilized CD34+ (unCD34+) peripheral blood mononuclear cells (PBMCs), two to four hours after surgery. […] Untreated mice served as controls (n=10).
Limb blood flow restoration was analyzed immediately before and after surgery and at various times thereafter in the entire limb distal to the ligation using LASER Doppler analysis.

[7] = system: bone marrow stem cells; details: rats; coronary ligation; injected within 4 to 6 hours, with or without rhG-CSF
Procedure: Adult rats are anesthetized and a thoracotomy is performed. The descending branch of the left coronary artery is ligated and not reperfused. […] Control rats are not treated with the reagents. The animals are monitored at one-week intervals by echocardiography and MRI. The experiment is terminated at 2, 6 to 12 weeks post-surgery. On the day of sacrifice, the hemodynamic functions are analyzed for left ventricle-end diastolic pressure, left ventricle-developed pressure and the rate of rise and fall of left ventricle pressure. The heart is then arrested in diastole and perfused via the abdominal aorta to flush residual blood from the vascular network of the myocardium. This is followed by perfusion of the heart with 10% formalin. Several slices are made through the fixed heart and these are embedded in paraffin and sections. The sections are stained and analyzed by light microscopy to determine the size of the infarct in the treated and control animals. Tissue sections from hearts taken at 2 weeks after surgery are stained with antibodies specific for immature, developing myocyte and blood vessel proteins and analyzed by confocal microscopy. The immunohistochemical analysis involves the identification of transcription factors and surface markers expressed in early stages of myocyte development.

[8] = system: WBC; details: Phase 1 study; single dose of 80 μg/kg; cited from earlier work
[9] = system: circulating CD34+ progenitor/stem cells; details: Phase 1 study; single dose of 80 μg/kg; 6 hour time point; cited from earlier work
[10] = single s.c. injection 2.5 mg/kg
[11] = individual donors P1-P5, T = 1 hour
[12] = individual donors P1-P5, T = 3 hours
[13] = individual donors P1-P5, T = 6 hours
[14] = individual donors P1-P5, T = 9 hours
[15] = individual donors P1-P5, T = 24 hours
[16] = ischemic hind limb, 5 mg/kg intraperitoneally on days 0 and 2

Structure (SMILES): c1cc(CN2CCCNCCNCCCNCC2)ccc1CN1CCCNCCNCCCNCC1 [AMD3100, 1,1′-[1,4-phenylene-bis(methylene)]-bis-1,4,8,11-tetraazacyclotetradecane]
- Fold Change Compared to Time 0, Progenitors, Methylcellulose Culture, BFU-E ([1]; Time 2′): 2.07
- Fold Change Compared to Time 0, Progenitors, Methylcellulose Culture, CFU-GEMM ([1]; Time 2′): 1.85
- Fold Change Compared to Time 0, Progenitors, Methylcellulose Culture, GM ([1]; Time 2′): 2.86
- Fold Change Compared to Time 0, Progenitors, Methylcellulose Culture, BFU-E ([1]; Time 15″): 2.72
- Fold Change Compared to Time 0, Progenitors, Methylcellulose Culture, CFU-GEMM ([1]; Time 15″): 3.51
- Fold Change Compared to Time 0, Progenitors, Methylcellulose Culture, GM ([1]; Time 15″): 2.73
- Fold Change Compared to Time 0, Progenitors, Methylcellulose Culture, BFU-E ([1]; Time 30″): 4.24
- Fold Change Compared to Time 0, Progenitors, Methylcellulose Culture, CFU-GEMM ([1]; Time 30″): 4.41
- Fold Change Compared to Time 0, Progenitors, Methylcellulose Culture, GM ([1]; Time 30″): 6.23
- Absolute Number Progenitors Per ML Blood, Methylcellulose Culture, BFU-E ([1]; single s.c. injection 1 mg/kg): 62 Per ML Blood
- Absolute Number Progenitors Per ML Blood, Methylcellulose Culture, CFU-GEMM ([1]; single s.c. injection 1 mg/kg): 27.1 Per ML Blood
- Absolute Number Progenitors Per ML Blood, Methylcellulose Culture, CFU-GM ([1]; single s.c. injection 1 mg/kg): 424 Per ML Blood
- Absolute Number Progenitors Per ML Blood, Methylcellulose Culture, BFU-E [1, 10]: 98.9 Per ML Blood
- Absolute Number Progenitors Per ML Blood, Methylcellulose Culture, CFU-GEMM [1, 10]: 70.6 Per ML Blood
- Absolute Number Progenitors Per ML Blood, Methylcellulose Culture, CFU-GM [1, 10]: 687.6 Per ML Blood
- Absolute Number Progenitors Per ML Blood, Methylcellulose Culture, BFU-E ([1]; single s.c. injection 5 mg/kg): 92.8 Per ML Blood
- Absolute Number Progenitors Per ML Blood, Methylcellulose Culture, CFU-GEMM ([1]; single s.c. injection 5 mg/kg): 69.5 Per ML Blood
- Absolute Number Progenitors Per ML Blood, Methylcellulose Culture, CFU-GM ([1]; single s.c. injection 5 mg/kg): 608.4 Per ML Blood
- Absolute Number Progenitors Per ML Blood, Methylcellulose Culture, BFU-E ([1]; single s.c. injection 10 mg/kg): 120.5 Per ML Blood
- Absolute Number Progenitors Per ML Blood, Methylcellulose Culture, CFU-GEMM ([1]; single s.c. injection 10 mg/kg): 79.8 Per ML Blood
- Absolute Number Progenitors Per ML Blood, Methylcellulose Culture, CFU-GM ([1]; single s.c. injection 10 mg/kg): 825.6 Per ML Blood
- Absolute Progenitors Per ML Blood, Methylcellulose Culture, BFU-E ([1]; 15″): 134.5 Per ML Blood
- Absolute Progenitors Per ML Blood, Methylcellulose Culture, CFU-GEMM ([1]; 15″): 90.4 Per ML Blood
- Absolute Progenitors Per ML Blood, Methylcellulose Culture, CFU-GM ([1]; 15″): 791.6 Per ML Blood
- Absolute Progenitors Per ML Blood, Methylcellulose Culture, BFU-E ([1]; 30″): 209.3 Per ML Blood
- Absolute Progenitors Per ML Blood, Methylcellulose Culture, CFU-GEMM ([1]; 30″): 113.5 Per ML Blood
- Absolute Progenitors Per ML Blood, Methylcellulose Culture, CFU-GM ([1]; 30″): 1805.5 Per ML Blood
- Absolute Progenitors Per ML Blood, Methylcellulose Culture, BFU-E ([1]; 120″): 102.3 Per ML Blood
- Absolute Progenitors Per ML Blood, Methylcellulose Culture, CFU-GEMM ([1]; 120″): 47.6 Per ML Blood
- Absolute Progenitors Per ML Blood, Methylcellulose Culture, CFU-GM ([1]; 120″): 528.7 Per ML Blood
- time post-administration at which elevation of CD34 positive progenitor cells maximized [2]: 6 h
- time post-administration at which elevation of the white blood cell count maximized ([3]; human volunteers): 6 h
- mobilization of white blood cells in individual volunteers ([3]; 2 Hr, volunteers P1-P5): 12.4 × 10^3 WBC's and 21.4 × 10^3 WBC's and 13.5 × 10^3 WBC's
- agar culture CFU-GM, % CHG ([4]; T = 1 hour): 180.8%
- mean fold change vs T=0, agar culture CFU-GM, MEAN ([4]; T = 1 hour): 2.81
- agar culture CFU-GM, % CHG ([4]; T = 3 hours): 754.1%
- mean fold change vs T=0, agar culture CFU-GM, MEAN ([4]; T = 3 hours): 8.54
- agar culture CFU-GM, % CHG ([4]; T = 6 hours): 1692.8%
- mean fold change vs T=0, agar culture CFU-GM, MEAN ([4]; T = 6 hours): 17.93
- agar culture CFU-GM, % CHG ([4]; T = 9 hours): 924.9%
- mean fold change vs T=0, agar culture CFU-GM, MEAN ([4]; T = 9 hours): 10.25
- agar culture CFU-GM, % CHG ([4]; T = 24 hours): 108.3%
- mean fold change vs T=0, agar culture CFU-GM, MEAN ([4]; T = 24 hours): 2.08
- BFU-E Cycling Status of Progenitors [5, 11]: 3% and 0% (4×)
- CFU-GEMM Cycling Status of Progenitors [5, 11]: 6% and 0% (4×)
- CFU-GM Cycling Status of Progenitors [5, 11]: 1% and 0% (4×)
- CFU-GEMM Cycling Status of Progenitors [5, 12]: 0% (4×) and 7%
- BFU-E Cycling Status of Progenitors [5, 13]: 0% (4×) and 1%
- CFU-GEMM Cycling Status of Progenitors [5, 13]: 0% (4×) and 8%
- CFU-GM Cycling Status of Progenitors [5, 13]: 0%
- BFU-E Cycling Status of Progenitors [5, 14]: 0% (4×) and 11%
- CFU-GEMM Cycling Status of Progenitors [5, 14]: 4% and 0% (4×)
- CFU-GM Cycling Status of Progenitors [5, 14]: 2% and 0% (4×)
- BFU-E Cycling Status of Progenitors [5, 15]: 2% and 0% (3×) and 3%
- CFU-GEMM Cycling Status of Progenitors [5, 15]: 0%
- CFU-GM Cycling Status of Progenitors [5, 15]: 0% (3×) and 3% and 5%
- AGAR Culture CFU-GM Cycling Status of Progenitors [5, 11]: 3% and 0% (4×)
- AGAR Culture CFU-GM Cycling Status of Progenitors [5, 12]: 0% (4×) and 1%
- AGAR Culture CFU-GM Cycling Status of Progenitors [5, 13]: 1% and 0% (2×) and 3% (2×)
- AGAR Culture CFU-GM Cycling Status of Progenitors ([5]; individual donors P2-P5, T = 9 hours): 0%
- AGAR Culture CFU-GM Cycling Status of Progenitors ([5]; individual donors P2-P5, T = 24 hours): 0%
- cycling state of progenitors ([5]; prior to and 1, 3, 6, 9 and 24 hours after injection, human donors): slow or non-cycling state
- time at which drug induced improvement was observed [6, 16]: two
- time by which blood flow had reached its maximum [6, 16]: seven
- blood flow maintained, mean % of the initial flow (plateau) ([6]; ischemic hind limb, 5 mg/kg intraperitoneally on the day of and two days after surgery, mean flow d8-d24): 74.6±2.8%
- overall effect of systemic therapy on blood flow restoration ([6]; ischemic limb, systemic (intraperitoneal) treatment): accelerated blood flow restoration, but did not increase it
- expected effect on ischemic myocardium [7]: will lead to regeneration of the dead myocardium
- WBC count [8]: 17,000 /μl
- peak increase in circulating CD34+ progenitor/stem cells [9]: 6 fold
